Test results: patent publication US9695155B2, “Herbicidal substituted pyrimidinyloxy benzene compounds” (E. I. DU PONT DE NEMOURS AND COMPANY, priority 2013, dated 2017)
Read-outs that look alike come from different tables or passages of the source.

Columns and labels:
rice = assay: Test B flooded paddy test; assay type: in vivo, Oryza sativa; conditions: Flood, 250 g ai/ha, 0 to 100 scale where 0 is no effect and 100 is complete control; for plant injury at 250 g/ha: Oryza sativa, read-out: Plant response rating, Rice
Outline: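 Scores from 0 (no effect) to 100 (complete control) are visual comparisons with controls, taken 13 to 15 days after compound was applied into floodwater 3 cm deep around 2-leaf plants.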

barnyardgrass = assay: Test A preemergence; assay type: in vivo, Echinochloa crus-galli
Outline: (§1)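 Compounds in non-phytotoxic solvent with surfactant applied as soil spray preemergence, or postemergence to plants 2-10 cm at one- to two-leaf stage, in loam/sand. After approximately 10 days in greenhouse, injury rated visually versus untreated controls, 0 (no effect) to 100 (complete control).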

corn = assay: Test A preemergence; assay type: in vivo, Zea mays
Outline: as §1

large (Lg) crabgrass [1] = assay: Test A preemergence; assay type: in vivo, Digitaria sanguinalis
Outline: as §1

pigweed = assay: Test A preemergence; assay type: in vivo, Amaranthus retroflexus
Outline: as §1

large (Lg) crabgrass [2] = assay: Test A postemergence; assay type: in vivo, Digitaria sanguinalis
Outline: as §1

yellow nutsedge = assay: Test C preemergence; assay type: in vivo, Cyperus esculentus
Description: (§2) Seeds of plant species selected from blackgrass (Alopecurus myosuroides), Italian ryegrass (Lolium multiflorum), wheat, winter (winter wheat, Triticum aestivum), galium (catchweed bedstraw, Galium aparine), corn (Zea mays), large (Lg) crabgrass (Digitaria sanguinalis), giant foxtail (Setaria faberii), johnsongrass (Sorghum halepense), lambsquarters (Chenopodium album), morningglory (Ipomoea coccinea), yellow nutsedge (Cyperus esculentus), pigweed (Amaranthus retroflexus), ragweed (common ragweed, Ambrosia elatior), soybean (Glycine max), barnyardgrass (Echinochloa crus-galli), oilseed rape (Brassica napus), waterhemp (common waterhemp, Amaranthus rudis), kochia (Kochia scoparia), wild oat (Avena fatua), surinam grass (Brachiaria decumbens), foxtail, green (green foxtail, Setaria viridis), goosegrass (Eleusine indica), bromegrass, downy (downy bromegrass, Bromus tectorum), nightshade (eastern black nightshade, Solanum ptycanthum), cocklebur (common cocklebur, Xanthium strumarium), cupgrass, woolly (woolly cupgrass, Eriochloa villosa), bermudagrass (Cynodon dactylon), sunflower, (common oilseed sunflower, Helianthus annuus), Russian thistle (Salsola kali), and velvetleaf (Abutilon theophrasti) were planted into a blend of loam soil and sand and treated preemergence with test chemicals formulated in a non-phytotoxic solvent mixture which included a surfactant.
(§3) At the same time, plants selected from these crop and weed species and also barley, winter (winter barley, Hordeum vulgare), windgrass (Apera spica-venti), chickweed (common chickweed, Stellaria media), deadnettle (henbit deadnettle, Lamium amplexicaule), and canarygrass (littleseed canarygrass, Phalaris minor) were planted in pots containing Redi-Earth® planting medium (Scotts Company, 14111 Scottslawn Road, Marysville, Ohio 43041) comprising spaghnum peat moss, vermiculite, wetting agent and starter nutrients and treated with postemergence applications of test chemicals formulated in the same manner. Plants ranged in height from 2 to 18 cm (1- to 4-leaf stage) for postemergence treatments. Treated plants and controls were maintained in a greenhouse for 13 to 15 days, after which time all species were compared to controls and visually evaluated. Plant response ratings, summarized in Table C, are based on a scale of 0 to 100 where 0 is no effect and 100 is complete control. A dash (-) response means no test result.

giant foxtail = assay: Test C preemergence; assay type: in vivo, Setaria faberii
Description: as §2, §3

[3] = 125 g ai/ha, 0 to 100 scale where 0 is no effect and 100 is complete control
[4] = 500 g ai/ha, 0 to 100 scale, 0 no effect, 100 complete control, approx. 10 days
[5] = 16 g ai/ha, preemergence, scale 0 to 100 (0 no effect, 100 complete control)
[6] = 62 g ai/ha, preemergence, scale 0 (no effect) to 100 (complete control)
[7] = 125 g ai/ha, preemergence, scale 0 (no effect) to 100 (complete control)
[8] = Preemergence, 31 g ai/ha, scale 0 to 100, 0 no effect, 100 complete control
[9] = 500 g ai/ha, 0 to 100 scale where 0 is no effect and 100 is complete control
[10] = 31 g ai/ha, 0 to 100 scale where 0 is no effect and 100 is complete control, visual, approximately 10 days
[11] = Preemergence, 62 g ai/ha, scale 0 to 100, 0 no effect, 100 complete control

| Structure (SMILES) | Plant response rating, Rice (rice) | Plant response rating, Barnyardgrass (barnyardgrass; [3]) | Nutsedge, Yellow plant response rating (yellow nutsedge; [5]) | Nutsedge, Yellow plant response rating (yellow nutsedge; [6]) | Nutsedge, Yellow plant response rating (yellow nutsedge; [7]) | Plant response rating, Pigweed (pigweed; [3]) | Foxtail, Giant plant response rating (giant foxtail; [5]) | Foxtail, Giant plant response rating (giant foxtail; [6]) | Foxtail, Giant plant response rating (giant foxtail; [7]) | Plant response rating, Foxtail, Giant (giant foxtail; [8]) | Plant response rating, Barnyardgrass (barnyardgrass; [10]) | Plant response rating, Pigweed (pigweed; [10]) | Barnyardgrass plant response rating (0 to 100 scale, 0 is no effect, 100 is complete control) (barnyardgrass; 125 g ai/ha) | Pigweed plant response rating (0 to 100 scale) (pigweed; 125 g ai/ha) | further results |
| --- | --- | --- | --- | --- | --- | --- | --- | --- | --- | --- | --- | --- | --- | --- | --- |
| FC(F)(F)c1ccn(-c2ccccc2Oc2ncc(Cl)cn2)n1 [Compound 2, 5-chloro-2-[2-[3-(trifluoromethyl)-1H-pyrazol-1-yl]phenoxy]pyrimidine] |  |  |  |  |  |  |  |  |  |  |  |  |  |  | plant injury at 250 g/ha (rice): 0%; pest or weed control at 125 g/ha (barnyardgrass; Echinochloa crus-galli, pre-emergence, 240 h, 125 g ai/ha, 0 to 100 scale where 0 is no effect and 100 is complete control, read-out: Barnyardgrass plant response rating): 30%; pest or weed control at 500 g/ha (barnyardgrass; Echinochloa crus-galli, pre-emergence, 240 h, 500 g ai/ha, 0 to 100 scale, 0 no effect, 100 complete control, approx. 10 days, read-out: Barnyardgrass plant response rating): 90%; plant injury at 125 g/ha (corn; Zea mays, pre-emergence, 240 h, 125 g ai/ha, 0 to 100 scale where 0 is no effect and 100 is complete control, read-out: Corn plant response rating): 0%; plant injury at 500 g/ha (corn; Zea mays, pre-emergence, 240 h, 500 g ai/ha, 0 to 100 scale, 0 no effect, 100 complete control, approx. 10 days, read-out: Corn plant response rating): 30%; pest or weed control at 125 g/ha (large (Lg) crabgrass [1]; Digitaria sanguinalis, pre-emergence, 240 h, 125 g ai/ha, 0 to 100 scale where 0 is no effect and 100 is complete control, read-out: Crabgrass, Large plant response rating): 80%; pest or weed control at 500 g/ha (large (Lg) crabgrass [1]; Digitaria sanguinalis, pre-emergence, 240 h, 500 g ai/ha, 0 to 100 scale, 0 no effect, 100 complete control, approx. 10 days, read-out: Crabgrass, Large plant response rating): 100%; pest or weed control at 125 g/ha (pigweed; Amaranthus retroflexus, pre-emergence, 240 h, 125 g ai/ha, 0 to 100 scale where 0 is no effect and 100 is complete control, read-out: Pigweed plant response rating): 90%; pest or weed control at 500 g/ha (pigweed; Amaranthus retroflexus, pre-emergence, 240 h, 500 g ai/ha, 0 to 100 scale, 0 no effect, 100 complete control, approx. 10 days, read-out: Pigweed plant response rating): 100%; pest or weed control at 125 g/ha (large (Lg) crabgrass [2]; Digitaria sanguinalis, post-emergence, 240 h, 125 g ai/ha, 0 to 100 scale where 0 is no effect and 100 is complete control, read-out: Plant response rating, Crabgrass, Large): 20%; pest or weed control at 500 g/ha (large (Lg) crabgrass [2]; Digitaria sanguinalis, post-emergence, 240 h, 500 g ai/ha, 0 to 100 scale, 0 no effect, 100 complete control, read-out: Plant response rating Crabgrass, Large): 60% |
| Clc1cnc(Oc2ccccc2-n2cc(Cl)cn2)nc1 [Compound 3] | 0 |  |  |  |  |  |  |  |  |  |  |  |  |  | Barnyardgrass plant response rating (barnyardgrass; [3]): 60; Barnyardgrass plant response rating (barnyardgrass; [4]): 100; Corn plant response rating (corn; [3]): 0; Corn plant response rating (corn; [4]): 10; Crabgrass, Large plant response rating (large (Lg) crabgrass [1]; [3]): 90; Crabgrass, Large plant response rating (large (Lg) crabgrass [1]; [4]): 100; Pigweed plant response rating (pigweed; [3]): 90; Pigweed plant response rating (pigweed; [4]): 100; Plant response rating, Crabgrass, Large (large (Lg) crabgrass [2]; [3]): 10; Plant response rating, Crabgrass, Large (large (Lg) crabgrass [2]; 500 g ai/ha, 0 to 100 scale, 0 no effect, 100 complete control): 80 |
| FCc1cccc(Oc2ncc(F)cn2)c1-n1cc(C(F)(F)F)cn1 [Compound 118] | 60 | 100 | 0 | 25 | 70 | 100 | 25 | 95 | 100 | 75 |  |  |  |  | Barnyardgrass plant response rating (0 to 100 scale) (barnyardgrass; 31 g ai/ha): 50; Plant response rating, Nutsedge, Yellow (yellow nutsedge; [8]): 5; Pigweed plant response rating (0 to 100 scale) (pigweed; 31 g ai/ha): 100 |
| COc1cnn(-c2c(C#N)cccc2Oc2ncc(Cl)cn2)c1 [Compound 137] | 0 | 20 | 0 | 5 | 10 | 90 | 35 | 60 | 90 | 5 |  |  |  |  | Barnyardgrass plant response rating (barnyardgrass; [9]): 100; Pigweed plant response rating (pigweed; [9]): 100 |
| N#Cc1cnn(-c2c(CF)cccc2Oc2ncc(F)cn2)c1 [Compound 151] | 20 | 60 | 0 | 5 | 25 | 90 | 5 | 80 | 100 | 35 | 20 | 90 |  |  |  |
| FCc1cccc(Oc2ncc(Cl)cn2)c1-n1cc(Cl)cn1 [Compound 250] | 0 |  | 0 |  | 5 |  | 5 |  | 100 |  | 10 | 80 | 90 | 100 | Plant response rating, Foxtail, Giant (giant foxtail; [11]): 100 |
| N#Cc1cccc(Oc2ncc(Cl)cn2)c1-n1cnc(C(F)(F)F)c1 [Compound 252, 3-[(5-chloro-2-pyrimidinyl)oxy]-2-[4-(trifluoromethyl)-1H-imidazol-1-yl]benzonitrile] |  |  |  |  |  |  |  |  |  |  |  |  | 100 | 100 | plant injury at 250 g/ha (rice): 0%; pest or weed control at 31 g/ha (barnyardgrass; Echinochloa crus-galli, pre-emergence, 240 h, 31 g ai/ha, 0 to 100 scale where 0 is no effect and 100 is complete control, visual, approximately 10 days, read-out: Plant response rating, Barnyardgrass): 70%; pest or weed control at 500 g/ha (barnyardgrass; Echinochloa crus-galli, pre-emergence, 240 h, 500 g ai/ha, 0 to 100 scale where 0 is no effect and 100 is complete control, read-out: Barnyardgrass plant response rating): 100%; pest or weed control at 16 g/ha (yellow nutsedge; Cyperus, pre-emergence, 16 g ai/ha, preemergence, scale 0 to 100 (0 no effect, 100 complete control), read-out: Nutsedge, Yellow plant response rating): 0%; pest or weed control at 125 g/ha (yellow nutsedge; Cyperus, pre-emergence, 125 g ai/ha, preemergence, scale 0 (no effect) to 100 (complete control), read-out: Nutsedge, Yellow plant response rating): 60%; pest or weed control at 62 g/ha (yellow nutsedge; Cyperus, pre-emergence, Preemergence, 62 g ai/ha, scale 0 to 100, 0 no effect, 100 complete control, read-out: Plant response rating, Nutsedge, Yellow): 40%; pest or weed control at 31 g/ha (pigweed; Amaranthus retroflexus, pre-emergence, 240 h, 31 g ai/ha, 0 to 100 scale where 0 is no effect and 100 is complete control, visual, approximately 10 days, read-out: Plant response rating, Pigweed): 100%; pest or weed control at 500 g/ha (pigweed; Amaranthus retroflexus, pre-emergence, 240 h, 500 g ai/ha, 0 to 100 scale where 0 is no effect and 100 is complete control, read-out: Pigweed plant response rating): 100%; pest or weed control at 16 g/ha (giant foxtail; Setaria faberi, pre-emergence, 16 g ai/ha, preemergence, scale 0 to 100 (0 no effect, 100 complete control), read-out: Foxtail, Giant plant response rating): 35%; pest or weed control at 125 g/ha (giant foxtail; Setaria faberi, pre-emergence, 125 g ai/ha, preemergence, scale 0 (no effect) to 100 (complete control), read-out: Foxtail, Giant plant response rating): 100%; pest or weed control at 62 g/ha (giant foxtail; Setaria faberi, pre-emergence, Preemergence, 62 g ai/ha, scale 0 to 100, 0 no effect, 100 complete control, read-out: Plant response rating, Foxtail, Giant): 100% |
| Fc1cccc(Oc2ncc(Cl)cn2)c1-n1cc(OCC(F)(F)F)cn1 [Compound 270] | 0 |  | 0 |  | 45 |  | 5 |  | 100 |  | 20 | 100 | 100 | 100 | Plant response rating, Nutsedge, Yellow (yellow nutsedge; [11]): 15; Plant response rating, Foxtail, Giant (giant foxtail; [11]): 100 |
